Values of other authors as cited in article PMC6790288 (The journal of pain : official journal of the American Pain …, 2019).

Settings: in vivo, po; cited from earlier work

| SMILES | lethal oral dose [mg] |
| --- | --- |
| COc1ccc2c3c1O[C@H]1C(=O)CC[C@H]4[C@@H](C2)N(C)CC[C@]314 [Hydrocodone, hydrocodone] | 90 |
| COc1ccc2c3c1O[C@H]1C(=O)CC[C@@]4(O)[C@@H](C2)N(C)CC[C@]314 [Oxycodone, oxycodone] | 40 |
